For assay [1], the system named is HL-60 cell line transfected with Bcl-2. Put plainly: DNA fragmentation assay in Bcl-2-transfected HL-60 cells. To be noted: for DNA fragmentation (reversal of Bcl-2 block of apoptosis): 50 μM, 24 hours. The assay is classed as cell-based, human.
For assay [2], the target named is T1, Bcl-2 protein (Homo sapiens, UniProt P10415).
T1 construct: purified soluble Bcl-2 proteins purchased from Santa Cruz Biotechnology, Inc., Calif; purchased Santa Cruz Biotechnology, Inc
T1 sequence (P10415 1-205 limits assumed): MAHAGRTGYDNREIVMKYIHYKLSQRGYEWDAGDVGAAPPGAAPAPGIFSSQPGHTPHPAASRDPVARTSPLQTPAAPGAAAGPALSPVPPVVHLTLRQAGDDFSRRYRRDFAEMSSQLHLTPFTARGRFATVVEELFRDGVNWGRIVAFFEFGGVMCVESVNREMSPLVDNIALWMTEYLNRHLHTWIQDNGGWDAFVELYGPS
Put plainly: Bcl-2 competition binding assay (fluorescence polarization, Flu-1193 probe). To be noted: for concentration-dependent competition binding: increasing compound concentrations, HA14-1 1 to 100 μM. Background: Polarisation of emitted light reports the rotation of a fluorescent probe.

In assay [3] the test system is HL-60 cell line (parent line). To be noted: 50 μM etoposide; cited from earlier work.
Assay [4] concerns HL-60 cell line transfected with Bcl-2. The following applies: 50 μM etoposide; cited from earlier work.
Assay [5] has as its system 697 cells. Put plainly: DNA fragmentation assay in 697 cells. It counts as cell-based, human. To be noted: 50 μM, 48 hours. The procedure:
The Bcl-transfected cells were incubated with Bcl-2 inhibitor test compounds at 50 μM for 24 hours and then examined for apoptosis by the following DNA fragmentation assay. Then the treated cells were washed in PBS, lysed in digestion buffer (100 mM NaCl, 10 mM Tris-Cl, pH8, 25 mM EDTA, pH 8, 0.5% SDS, 0.1 mg/ml proteinase K), and incubated overnight at 50° C. The samples were extracted three times with phenol-chloroform, precipitated with an equal volume isopropanol, and spun down for 15 minutes in a microcentrifuge at room temperature. The DNA precipitate was washed once with 70% ethanol and resuspended in TE buffer containing 200 μg/ml DNase-free RNase A (Boehringer Mannheim, Indianapolis, Ind.). Alter incubation at 37° C. for 30 min., the DNA was loaded into a 2% agarose mini-gel with 2 μg/ml ethidium bromide, and electrophoresis is run at 50 V for 2 hours in 0.5×TBE buffer. The gel was destained with water for 1 hour arid photographed under UV light.
First, the ethidium bromide stain concentration was 1 μg/ml instead of 2 μg/ml. Second, the cells for the assay comprised 697 cells. The 697 line is a human pre-B leukemia line with a t(1; 19) chromosomal translocation (no translocation involving Bcl-2). Bcl-2 is highly expressed in this line. The high expression of Bcl-2 in 697 cells was confirmed by protein immunoblot analysis (data not shown). […] DNA markers were phiX174 DNA with restriction endonuclease Hae III (Boehringer Mannheim, Indianapolis, Ind.). The cells were incubated with test compound at 50 μM concentration or Taxol at 5 μM concentration for 48 hours.

Assay [6] has as its system HL-60 neo line. Put plainly: Control apoptosis experiment in HL-60 neo line. It counts as cell-based, human. The following applies: 50 μM.
The subject of assay [7] is 697 cells. To be noted: positive control; cited from earlier work.

“Also recorded” adds a separate entry of the source.

Consider `COC1OC2COC(c3ccccc3)O[C@H]2[C@@H](OC(C)=O)[C@H]1OS(=O)(=O)c1ccccc1` (stereo partly shown) [HA14], for which the “DNA fragmentation (reversal of Bcl-2 block of apoptosis)” value in assay [1] is recorded as “DNA fragmentation is apparent”. For `O=C1c2ccccc2SC(c2ccccc2)C1CN1CCN(C(C(=O)O)C(=O)O)CC1` (stereo not shown) [HA03], the concentration-dependent competition binding result in assay [2] is “clear concentration-dependent competition binding was observed”. On to `COc1cc([C@@H]2c3cc4c(cc3[C@@H](O[C@@H]3O[C@@H]5CO[C@@H](C)O[C@H]5[C@H](O)[C@H]3O)[C@H]3COC(=O)[C@H]23)OCO4)cc(OC)c1O` [etoposide], for which the “sensitivity of cells to apoptosis-inducing drug” value in assay [3] is given as “sensitive”. Besides, the “sensitivity of Bcl-2-transfected cells to apoptosis-inducing drug” value in assay [4] is listed as “resistant”. With `Nc1nc(N)c2c(Oc3ccccc3)cccc2n1` [HA04], the “DNA fragmentation / apoptosis induction” value in assay [5] was “induced DNA fragmentation to various extents”. For the same compound, the concentration-dependent competition binding result in assay [2] is listed as “clear concentration-dependent competition binding was observed”. As for `CCOC(=O)C1=C(N)Oc2ccc(Br)cc2C1C(C#N)C(=O)OCC` (stereo not shown) [HA14-1, ETHYL 2-AMINO-6- BROMO-4-(1-CYANO-2- ETHOXY-2-OXOETHYL)- 4H-CHROMENE-3- CARBOXYLATE], the “DNA fragmentation after fluoromethyl ketone pretreatment” value in assay [1] (100 μM fluoromethyl ketone 2 hours, then 50 μM HA14-1 24 hours) was “neutralize the action of HA14-1”. Besides, the concentration-dependent competition binding entry in assay [2] is on record as “clear concentration-dependent competition binding was observed”. For `COc1cc(C2c3cc4c(cc3OC(N3CCOCC3)C2C)OCO4)cc(OC)c1O` (stereo not shown) [HA11-57, 2,6-DI-MEO-4-(7-ME-6-MORPHOLIN-4-YL-6H- [1,3]DIOXOLO[4,5-G]CHROMEN-8-YL)-PHENOL], the “DNA fragmentation (reversal of Bcl-2 block of apoptosis)” value in assay [1] was “DNA fragmentation is apparent”. For `O=C1Nc2ccccc2/C1=C/c1ccc[nH]1` [HA12-16], in assay [5] (listed as HA01), the “DNA fragmentation / apoptosis induction” value was “induced DNA fragmentation to various extents; also recorded: induced apoptosis in the 697 cells”. The “apoptosis induction in cells not regulated by Bcl-2” value in assay [6] was “lack of effect in inducing apoptosis”. In the case of `CC(=O)c1cc(C(=O)c2ccccc2)n2ccc(Cc3ccc([N+](=O)[O-])cc3)cc12` [HA13], the “DNA fragmentation (reversal of Bcl-2 block of apoptosis)” value in assay [1] is “DNA fragmentation is apparent”. As usually defined, the Kd is a measure of binding affinity in units of concentration. Consider `COc1ccc(CCNC(=O)c2sc3c([N+](=O)[O-])cc(C(F)(F)F)cc3[n+]2[O-])cc1OC` [HA02], for which the “DNA fragmentation / apoptosis induction” value in assay [5] was “induced DNA fragmentation to various extents”. The concentration-dependent competition binding entry in assay [2] is reported as “clear concentration-dependent competition binding was observed”. Besides, the dissociation constant Kd in assay [2] (read-out: binding affinity (KD)) came out at 15 µM. On to `CC(=O)O[C@H]1C(=O)[C@@]2(C)[C@H]([C@H](OC(=O)c3ccccc3)[C@]3(O)C[C@H](OC(=O)[C@H](O)[C@@H](NC(=O)c4ccccc4)c4ccccc4)C(C)=C1C3(C)C)[C@]1(OC(C)=O)CO[C@@H]1C[C@@H]2O` [Taxol], for which the “apoptosis induction in 697 cells (known)” value in assay [7] was “known to induce apoptosis in 697 cells”.

The values above are taken from US6492389B1, “Small molecule inhibitors of BCL-2 proteins” (Thomas Jefferson University, priority 1998, dated 2002).
